According to US11466010B2, “Toll-like receptor 8 (TLR8) specific antagonists and methods of making and uses thereof” (The Regents of the University of Colorado, a body corporate, priority 2017, dated 2022):

How the values were obtained:
mouse TLR9 = target: T1, mouse TLR9 (Mus musculus, UniProt Q9EQU3); test: IL-12p40 production in splenocytes from hTLR8tg/TLR7-KO mice, TLR9 agonist 1018; assay type: cell-based; conditions: 1018 7.1 ug/mL, 48 hours
T1 construct: endogenous in cells; host or cells: primary splenocytes from hTLR8tg/TLR7-KO mice
T1 sequence (Q9EQU3 26-1032): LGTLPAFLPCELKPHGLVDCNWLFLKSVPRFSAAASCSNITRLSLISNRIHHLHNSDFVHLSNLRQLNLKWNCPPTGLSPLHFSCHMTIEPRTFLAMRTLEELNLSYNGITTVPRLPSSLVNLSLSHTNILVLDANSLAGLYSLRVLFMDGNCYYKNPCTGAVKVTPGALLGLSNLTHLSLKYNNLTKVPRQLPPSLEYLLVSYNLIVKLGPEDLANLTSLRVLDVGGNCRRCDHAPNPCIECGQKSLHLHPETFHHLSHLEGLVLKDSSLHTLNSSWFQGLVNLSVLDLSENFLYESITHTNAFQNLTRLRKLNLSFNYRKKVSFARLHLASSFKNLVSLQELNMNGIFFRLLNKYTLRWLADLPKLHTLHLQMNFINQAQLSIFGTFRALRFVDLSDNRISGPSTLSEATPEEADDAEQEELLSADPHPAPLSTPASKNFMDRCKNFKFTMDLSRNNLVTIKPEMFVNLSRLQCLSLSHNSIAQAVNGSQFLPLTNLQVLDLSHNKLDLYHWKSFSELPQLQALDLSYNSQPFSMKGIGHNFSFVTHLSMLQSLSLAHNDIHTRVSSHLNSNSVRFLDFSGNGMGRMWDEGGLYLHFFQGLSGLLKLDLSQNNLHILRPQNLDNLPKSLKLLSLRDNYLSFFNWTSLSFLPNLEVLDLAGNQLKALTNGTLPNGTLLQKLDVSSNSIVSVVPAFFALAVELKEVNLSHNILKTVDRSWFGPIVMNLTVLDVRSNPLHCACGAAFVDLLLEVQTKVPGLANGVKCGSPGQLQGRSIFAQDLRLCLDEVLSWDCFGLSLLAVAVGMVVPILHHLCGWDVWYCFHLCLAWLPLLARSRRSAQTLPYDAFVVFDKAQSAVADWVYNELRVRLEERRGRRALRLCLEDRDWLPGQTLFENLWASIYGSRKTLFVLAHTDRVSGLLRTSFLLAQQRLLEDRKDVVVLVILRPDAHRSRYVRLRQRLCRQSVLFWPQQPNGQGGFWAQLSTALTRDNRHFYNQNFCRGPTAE
Procedure: Activity on primary mouse splenocytes: To assess TLR8 and TLR9 activity, spleens were isolated from TLR7 knock-out mice harboring a human TLR8 transgene (hTLR8tg/TLR7-KO). Splenocytes were prepared by dissociation through a cell strainer and removal of red blood cells with lysis buffer. Splenocytes were incubated with a dilution series of compounds and a constant amount of a TLR8 agonist (RNA oligonucleotide ORN8L) or a TLR9 agonist (CpG-containing phosphorothioate DNA oligonucleotide 1018). After 48 hours, culture supernatants were collected and analyzed for IL-12p40 production. Curves represent activity from a single spleen.

TLR7 = target: T2, TLR7 (Homo sapiens, UniProt Q9NYK1); test: SEAP assay in HEK-Blue TLR7 cells activated by R848; assay type: cell-based; conditions: below approx. micromolar concentration
T2 construct: host or cells: HEK-Blue TLR7 cells
T2 sequence (Q9NYK1 27-1049): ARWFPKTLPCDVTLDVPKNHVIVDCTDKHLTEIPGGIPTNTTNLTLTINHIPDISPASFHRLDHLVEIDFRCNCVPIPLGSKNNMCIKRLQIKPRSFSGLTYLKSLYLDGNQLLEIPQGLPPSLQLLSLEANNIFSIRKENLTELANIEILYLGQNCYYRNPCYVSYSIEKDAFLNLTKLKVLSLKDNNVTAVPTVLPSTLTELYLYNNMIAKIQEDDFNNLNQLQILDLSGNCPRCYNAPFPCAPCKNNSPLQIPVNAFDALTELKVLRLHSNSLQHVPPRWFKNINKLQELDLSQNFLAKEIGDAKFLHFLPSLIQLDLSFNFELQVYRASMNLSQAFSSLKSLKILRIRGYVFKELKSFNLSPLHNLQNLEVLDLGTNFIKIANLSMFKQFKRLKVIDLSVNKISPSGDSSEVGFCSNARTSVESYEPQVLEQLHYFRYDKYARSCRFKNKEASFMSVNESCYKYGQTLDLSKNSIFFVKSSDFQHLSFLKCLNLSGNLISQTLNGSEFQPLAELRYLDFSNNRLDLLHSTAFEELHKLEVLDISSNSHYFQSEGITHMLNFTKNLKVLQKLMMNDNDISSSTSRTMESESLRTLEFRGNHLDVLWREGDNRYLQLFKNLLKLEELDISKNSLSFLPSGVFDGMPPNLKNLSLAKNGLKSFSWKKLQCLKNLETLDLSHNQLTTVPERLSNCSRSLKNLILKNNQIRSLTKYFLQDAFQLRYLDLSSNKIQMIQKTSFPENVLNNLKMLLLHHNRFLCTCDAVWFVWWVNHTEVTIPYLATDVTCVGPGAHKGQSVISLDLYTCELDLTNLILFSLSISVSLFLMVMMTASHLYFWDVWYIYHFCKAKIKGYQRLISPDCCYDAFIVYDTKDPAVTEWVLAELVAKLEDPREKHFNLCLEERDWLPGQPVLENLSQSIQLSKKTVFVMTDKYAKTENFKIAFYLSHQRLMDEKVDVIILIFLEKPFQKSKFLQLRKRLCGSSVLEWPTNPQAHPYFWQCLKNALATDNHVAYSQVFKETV
Procedure: TLR selectivity assay: The selectivity of sample compound was tested using SEAP reporter assay in HEK-Blue overexpressing various TLRs. Plates were set up in same manner as described in SEAP assay above.

Row | Compound | activity against mouse TLR9 (mouse TLR9) | effect on TLR7 (TLR7)
1 | COc1ccc2c(-c3ccc(O)c(C)c3)ccnc2c1 [Compound 11a, 2-Methyl-4-(7-methoxyl-4-quinolinyl)-phenol] | no activity | not affected
2 | Cc1cc(-c2ccnc3cc(O)ccc23)ccc1O [Compound 11b, 2-Methyl-4-(7-hydroxyl-4-quinolinyl)-phenol] | no activity | not affected
